From publication PMC7252619 (PLoS ONE, 2020)

Key:
Experiment in all cases: Kinase activity test (ReactionBiology), % enzyme activity relative to DMSO
Format in all cases: biochemical
DAPK1 = molecular target: T1, DAPK1 (Homo sapiens, UniProt P53355); details: DAPK1; for % Enzyme Activity (relative to DMSO controls), Data 1: replicate Data 1; for % Enzyme Activity (relative to DMSO controls), Data 2: replicate Data 2
T1 construct: purchased ReactionBiology

CK1d = molecular target: T2, CK1d (Homo sapiens, UniProt P48730); details: CK1d; for % Enzyme Activity (relative to DMSO controls), Data 1: replicate Data 1; for % Enzyme Activity (relative to DMSO controls), Data 2: replicate Data 2
T2 construct: purchased ReactionBiology
T2 sequence (P48730 whole entry): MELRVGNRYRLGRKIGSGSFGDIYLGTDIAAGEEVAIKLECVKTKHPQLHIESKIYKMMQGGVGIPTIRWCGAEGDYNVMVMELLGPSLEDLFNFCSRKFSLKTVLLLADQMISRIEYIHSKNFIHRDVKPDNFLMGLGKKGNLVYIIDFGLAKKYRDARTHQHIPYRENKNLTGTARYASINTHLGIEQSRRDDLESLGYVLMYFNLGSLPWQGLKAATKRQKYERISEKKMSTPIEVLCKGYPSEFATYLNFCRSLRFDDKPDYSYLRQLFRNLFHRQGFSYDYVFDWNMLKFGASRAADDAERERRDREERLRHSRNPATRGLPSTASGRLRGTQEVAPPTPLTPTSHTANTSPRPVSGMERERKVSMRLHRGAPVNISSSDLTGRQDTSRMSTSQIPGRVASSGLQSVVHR

VEGFR2 = VEGFR2 (Homo sapiens, UniProt P35968); design: purchased ReactionBiology; details: VEGFR2; for % Enzyme Activity (relative to DMSO controls), Data 1: replicate Data 1; for % Enzyme Activity (relative to DMSO controls), Data 2: replicate Data 2;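 on all read-outs here: VEGFR2 was one member of a ten-kinase screening panel testing marketed FDA-approved drugs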
VEGFR2, sequence (P35968 20-1356): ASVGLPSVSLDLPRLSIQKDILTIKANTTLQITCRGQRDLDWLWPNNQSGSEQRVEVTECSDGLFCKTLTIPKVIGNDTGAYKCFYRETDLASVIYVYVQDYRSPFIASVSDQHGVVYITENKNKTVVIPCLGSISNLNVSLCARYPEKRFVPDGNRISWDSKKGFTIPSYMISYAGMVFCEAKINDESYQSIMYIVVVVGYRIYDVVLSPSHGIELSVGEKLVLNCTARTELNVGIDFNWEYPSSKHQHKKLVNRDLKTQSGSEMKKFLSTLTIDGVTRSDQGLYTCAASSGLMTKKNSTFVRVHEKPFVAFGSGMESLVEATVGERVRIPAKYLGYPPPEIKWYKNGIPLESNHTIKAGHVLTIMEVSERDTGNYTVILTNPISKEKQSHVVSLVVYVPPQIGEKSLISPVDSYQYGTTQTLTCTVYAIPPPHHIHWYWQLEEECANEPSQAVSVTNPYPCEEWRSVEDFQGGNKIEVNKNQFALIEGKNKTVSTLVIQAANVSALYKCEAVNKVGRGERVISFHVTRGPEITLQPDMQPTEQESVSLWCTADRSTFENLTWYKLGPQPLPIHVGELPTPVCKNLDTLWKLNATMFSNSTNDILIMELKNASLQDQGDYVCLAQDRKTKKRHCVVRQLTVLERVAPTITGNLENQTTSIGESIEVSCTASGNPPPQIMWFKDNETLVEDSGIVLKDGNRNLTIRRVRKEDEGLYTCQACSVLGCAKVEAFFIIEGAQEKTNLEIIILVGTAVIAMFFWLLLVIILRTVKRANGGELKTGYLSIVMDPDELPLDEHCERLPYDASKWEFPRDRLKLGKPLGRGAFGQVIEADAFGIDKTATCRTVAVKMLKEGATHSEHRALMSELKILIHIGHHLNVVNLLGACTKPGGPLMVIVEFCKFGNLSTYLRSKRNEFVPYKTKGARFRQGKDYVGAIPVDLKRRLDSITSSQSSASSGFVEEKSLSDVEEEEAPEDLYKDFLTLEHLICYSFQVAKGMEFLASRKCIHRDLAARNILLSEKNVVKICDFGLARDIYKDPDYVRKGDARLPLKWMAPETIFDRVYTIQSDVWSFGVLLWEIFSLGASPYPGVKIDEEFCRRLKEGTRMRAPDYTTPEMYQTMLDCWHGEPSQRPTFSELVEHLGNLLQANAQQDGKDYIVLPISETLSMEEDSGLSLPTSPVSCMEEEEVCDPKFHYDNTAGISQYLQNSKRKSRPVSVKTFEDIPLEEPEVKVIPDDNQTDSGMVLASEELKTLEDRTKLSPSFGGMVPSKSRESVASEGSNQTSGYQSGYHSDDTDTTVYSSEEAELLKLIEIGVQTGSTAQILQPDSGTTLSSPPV

T1 sequence (P53355 whole entry): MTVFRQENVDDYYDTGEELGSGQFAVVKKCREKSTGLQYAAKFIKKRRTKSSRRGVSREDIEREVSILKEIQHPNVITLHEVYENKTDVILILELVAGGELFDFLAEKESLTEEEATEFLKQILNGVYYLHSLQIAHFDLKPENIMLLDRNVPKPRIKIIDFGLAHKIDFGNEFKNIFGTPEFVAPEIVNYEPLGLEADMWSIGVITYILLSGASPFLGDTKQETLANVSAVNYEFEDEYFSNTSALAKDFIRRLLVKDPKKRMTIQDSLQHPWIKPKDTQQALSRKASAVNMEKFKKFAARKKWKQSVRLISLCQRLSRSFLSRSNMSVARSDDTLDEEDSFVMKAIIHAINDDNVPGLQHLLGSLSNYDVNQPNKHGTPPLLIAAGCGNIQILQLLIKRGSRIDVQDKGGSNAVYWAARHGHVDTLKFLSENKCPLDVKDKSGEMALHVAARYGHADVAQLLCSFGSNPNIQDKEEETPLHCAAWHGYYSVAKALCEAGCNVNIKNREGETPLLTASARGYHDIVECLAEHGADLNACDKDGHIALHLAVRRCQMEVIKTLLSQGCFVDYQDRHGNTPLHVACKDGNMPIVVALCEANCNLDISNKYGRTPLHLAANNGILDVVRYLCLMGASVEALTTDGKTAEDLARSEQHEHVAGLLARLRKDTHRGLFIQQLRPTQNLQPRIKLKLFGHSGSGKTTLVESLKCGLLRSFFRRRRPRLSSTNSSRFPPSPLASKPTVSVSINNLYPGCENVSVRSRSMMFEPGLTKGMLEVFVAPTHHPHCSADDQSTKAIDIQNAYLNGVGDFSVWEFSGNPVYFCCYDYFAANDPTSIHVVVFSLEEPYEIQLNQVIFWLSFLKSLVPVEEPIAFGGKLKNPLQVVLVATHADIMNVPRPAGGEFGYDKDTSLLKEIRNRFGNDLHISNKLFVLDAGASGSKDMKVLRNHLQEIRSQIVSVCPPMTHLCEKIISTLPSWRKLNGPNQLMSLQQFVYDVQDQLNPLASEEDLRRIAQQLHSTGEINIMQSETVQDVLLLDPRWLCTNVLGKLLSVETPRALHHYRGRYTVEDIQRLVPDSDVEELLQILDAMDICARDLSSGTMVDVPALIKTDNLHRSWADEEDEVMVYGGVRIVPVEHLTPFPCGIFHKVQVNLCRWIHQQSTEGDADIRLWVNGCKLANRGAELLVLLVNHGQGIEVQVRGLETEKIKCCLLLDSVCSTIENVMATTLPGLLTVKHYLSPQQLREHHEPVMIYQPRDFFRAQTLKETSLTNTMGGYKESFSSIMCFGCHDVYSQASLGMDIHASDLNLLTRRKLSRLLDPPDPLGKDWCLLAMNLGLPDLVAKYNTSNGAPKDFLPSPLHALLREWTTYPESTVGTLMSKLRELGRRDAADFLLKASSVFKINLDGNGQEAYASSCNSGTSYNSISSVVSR

| % Enzyme Activity (relative to DMSO controls), Average (DAPK1; 1 uM) [%] | % Enzyme Activity (relative to DMSO controls), Data 1 (DAPK1; 1 uM) [%] | % Enzyme Activity (relative to DMSO controls), Data 2 (DAPK1; 1 uM) [%] | % Enzyme Activity (relative to DMSO controls), Average (DAPK1; 10 uM) [%] | % Enzyme Activity (relative to DMSO controls), Data 1 (DAPK1; 10 uM) [%] | % Enzyme Activity (relative to DMSO controls), Data 2 (DAPK1; 10 uM) [%] | % Enzyme Activity (relative to DMSO controls), Average (CK1d; 1 uM) [%] | % Enzyme Activity (relative to DMSO controls), Data 1 (CK1d; 1 uM) [%] | % Enzyme Activity (relative to DMSO controls), Data 2 (CK1d; 1 uM) [%] | % Enzyme Activity (relative to DMSO controls), Average (CK1d; 10 uM) [%] | % Enzyme Activity (relative to DMSO controls), Data 1 (CK1d; 10 uM) [%] | % Enzyme Activity (relative to DMSO controls), Data 2 (CK1d; 10 uM) [%] | % Enzyme Activity (relative to DMSO controls), Average (VEGFR2; 1 uM) [%] | % Enzyme Activity (relative to DMSO controls), Data 1 (VEGFR2; 1 uM) [%] | % Enzyme Activity (relative to DMSO controls), Data 2 (VEGFR2; 1 uM) [%] | % Enzyme Activity (relative to DMSO controls), Average (VEGFR2; 10 uM) [%] | % Enzyme Activity (relative to DMSO controls), Data 1 (VEGFR2; 10 uM) [%] | % Enzyme Activity (relative to DMSO controls), Data 2 (VEGFR2; 10 uM) [%] | Structure (SMILES) |
| --- | --- | --- | --- | --- | --- | --- | --- | --- | --- | --- | --- | --- | --- | --- | --- | --- | --- | --- |
| 96.25 | 96.85 | 95.64 | 91.80 | 90.59 | 93 |  |  |  |  |  |  |  |  |  |  |  |  | O=C1C(O)=C([C@H]2CC[C@H](c3ccc(Cl)cc3)CC2)C(=O)c2ccccc21 [Atovaquone] |
|  |  |  |  |  |  | 106.53 | 105.95 | 107.11 | 163.39 | 106.22 | 220.55 | 106.32 | 107.12 | 105.51 | 105.91 | 107.3 | 104.52 | CN[C@H]1CC[C@@H](c2ccc(Cl)c(Cl)c2)c2ccccc21 [Sertraline] |
|  |  |  |  |  |  | 103.78 | 105.89 | 101.67 | 108.37 | 107.23 | 109.5 | 102.42 | 103.18 | 101.65 | 97.95 | 98.92 | 96.97 | CN1CC(=O)N2[C@H](c3ccc4c(c3)OCO4)c3[nH]c4ccccc4c3C[C@@H]2C1=O [Tadalafil] |

Continued, molecule first:

| Structure (SMILES) | % Enzyme Activity (relative to DMSO controls), Average (DAPK1; 1 uM) [%] | % Enzyme Activity (relative to DMSO controls), Data 1 (DAPK1; 1 uM) [%] | % Enzyme Activity (relative to DMSO controls), Data 2 (DAPK1; 1 uM) [%] | % Enzyme Activity (relative to DMSO controls), Average (DAPK1; 10 uM) [%] | % Enzyme Activity (relative to DMSO controls), Data 1 (DAPK1; 10 uM) [%] | % Enzyme Activity (relative to DMSO controls), Data 2 (DAPK1; 10 uM) [%] | % Enzyme Activity (relative to DMSO controls), Average (CK1d; 1 uM) [%] | % Enzyme Activity (relative to DMSO controls), Data 1 (CK1d; 1 uM) [%] | % Enzyme Activity (relative to DMSO controls), Data 2 (CK1d; 1 uM) [%] | % Enzyme Activity (relative to DMSO controls), Average (CK1d; 10 uM) [%] | % Enzyme Activity (relative to DMSO controls), Data 1 (CK1d; 10 uM) [%] | % Enzyme Activity (relative to DMSO controls), Data 2 (CK1d; 10 uM) [%] | % Enzyme Activity (relative to DMSO controls), Average (VEGFR2; 1 uM) [%] | % Enzyme Activity (relative to DMSO controls), Data 1 (VEGFR2; 1 uM) [%] | % Enzyme Activity (relative to DMSO controls), Data 2 (VEGFR2; 1 uM) [%] | % Enzyme Activity (relative to DMSO controls), Average (VEGFR2; 10 uM) [%] | % Enzyme Activity (relative to DMSO controls), Data 1 (VEGFR2; 10 uM) [%] | % Enzyme Activity (relative to DMSO controls), Data 2 (VEGFR2; 10 uM) [%] |
| --- | --- | --- | --- | --- | --- | --- | --- | --- | --- | --- | --- | --- | --- | --- | --- | --- | --- | --- |
| COC(=O)N[C@H](C(=O)N[C@@H](Cc1ccccc1)[C@@H](O)CN(Cc1ccc(-c2ccccn2)cc1)NC(=O)[C@@H](NC(=O)OC)C(C)(C)C)C(C)(C)C [Atazanavir] | 98.48 | 95.12 | 101.84 | 74.66 | 73.05 | 76.27 |  |  |  |  |  |  |  |  |  |  |  |  |
| OC(Cn1cncn1)(Cn1cncn1)c1ccc(F)cc1F [Fluconazole] | 100.65 | 103.85 | 97.44 | 95.87 | 97.86 | 93.87 |  |  |  |  |  |  |  |  |  |  |  |  |
| C[C@@H]1O[C@@H]1P(=O)(O)O [Fosfomycin] | 101.25 | 100.97 | 101.52 | 92.74 | 95 | 90.48 |  |  |  |  |  |  |  |  |  |  |  |  |
| COc1ccc2c(c1)c(CC(=O)O)c(C)n2C(=O)c1ccc(Cl)cc1 [Iomethacin] |  |  |  |  |  |  | 102.15 | 102.08 | 102.21 | 95.39 | 98.78 | 92 | 105.43 | 105.61 | 105.25 | 102.46 | 106.14 | 98.78 |
| Cc1ccnc2c1NC(=O)c1cccnc1N2C1CC1 [Nevirapine] | 112.57 | 101.89 | 123.25 | 95.31 | 95.47 | 95.14 |  |  |  |  |  |  |  |  |  |  |  |  |
